In the NIST ThermoML archive (doi:10.1021/je060238o):

Experiments:
[1] = refractive index (Na D-line) (dimensionless); conditions: 298.15 K; 101.33 kPa; Liquid; Standard Abbe refractometry
[2] = Liquid; for mass density: 298.15 K, 101.33 kPa; for Normal boiling temperature: Ebulliometric method (Recirculating still)
[3] = xn = mol fraction of the nth substance listed; conditions: 298.15 K, 101 kPa, Liquid
[4] = refractive index (Na D-line) (dimensionless); xn = mol fraction of the nth substance listed; conditions: 298.15 K, 101 kPa, Liquid, Standard Abbe refractometry

CC(C)CO [2-methyl-1-propanol]
Conditions	Normal boiling temperature [°C]	mass density [kg/m3]	refractive index
[1]	–	–	1.3937
[2]	108	797.84	–

CC(C)CCO [3-methylbutan-1-ol] + CC(C)CO
Conditions	mass density, [3] [kg/m3]	refractive index, [4]
x2 = 0.051	805.95	1.40469
x2 = 0.099	805.61	1.40418
x2 = 0.15	805.25	1.40371
x2 = 0.199	804.88	1.40318
x2 = 0.254	804.48	1.4026
x2 = 0.3	804.15	1.40212
x2 = 0.35	803.77	1.40161
x2 = 0.4	803.39	1.40109
x2 = 0.445	803.05	1.4006
x2 = 0.5	802.62	1.39997
x2 = 0.549	802.23	1.3994
x2 = 0.6	801.83	1.39879
x2 = 0.65	801.42	1.39821
x2 = 0.7	800.64	1.39764
x2 = 0.751	800.19	1.39701
x2 = 0.799	799.74	1.39636
x2 = 0.849	799.27	1.39567
x2 = 0.899	798.8	1.395
x2 = 0.95	798.31	1.39435

CC(C)CCO [3-methylbutan-1-ol]
Conditions	Normal boiling temperature [°C]	mass density [kg/m3]	refractive index
[1]	–	–	1.40515
[2]	131.12	806.78	–

CC(C)CO [2-methyl-1-propanol] + CCCCCO
Conditions	mass density, [3] [kg/m3]	refractive index, [4]
x1 = 0.05	810.3	1.4071
x1 = 0.1	809.7	1.4065
x1 = 0.15	809.09	1.40588
x1 = 0.2	808.51	1.40524
x1 = 0.249	807.94	1.4046
x1 = 0.299	807.34	1.40394
x1 = 0.35	806.75	1.40326
x1 = 0.4	806.13	1.40259
x1 = 0.45	805.53	1.40193
x1 = 0.499	804.9	1.40124
x1 = 0.549	804.29	1.40055
x1 = 0.6	803.64	1.39983
x1 = 0.65	803.01	1.3991
x1 = 0.699	802.41	1.39834
x1 = 0.75	801.73	1.39758
x1 = 0.8	801.07	1.39683
x1 = 0.85	800.39	1.39604
x1 = 0.9	799.67	1.39524
x1 = 0.95	798.84	1.39447

CCC(C)CO (stereo unspecified) [2-methyl-1-butanol] + CC(C)CO
Conditions	mass density, [3] [kg/m3]	refractive index, [4]
x2 = 0.051	814.19	1.40802
x2 = 0.101	813.53	1.40742
x2 = 0.151	812.85	1.40674
x2 = 0.2	812.17	1.40606
x2 = 0.25	811.49	1.40538
x2 = 0.3	810.75	1.40466
x2 = 0.35	810.03	1.40397
x2 = 0.401	809.29	1.40328
x2 = 0.45	808.55	1.40252
x2 = 0.5	807.79	1.40178
x2 = 0.549	807.02	1.40107
x2 = 0.599	806.25	1.40029
x2 = 0.65	805.45	1.39946
x2 = 0.701	804.63	1.39866
x2 = 0.749	803.86	1.3979
x2 = 0.8	803	1.39706
x2 = 0.85	802.17	1.3962
x2 = 0.899	801.17	1.39533
x2 = 0.95	800.1	1.3945

CCC(C)CO (stereo unspecified) [2-methyl-1-butanol]
Conditions	Normal boiling temperature [°C]	mass density [kg/m3]	refractive index
[1]	–	–	1.40872
[2]	128.78	814.87	–

CCCCCO [pentan-1-ol]
Conditions	Normal boiling temperature [°C]	mass density [kg/m3]	refractive index
[1]	–	–	1.4077
[2]	137.70	810.96	–
